Assay [1] can be described thus: Fluorescence polarization-based biochemical high throughput dose response assay for activators of the Protein Kinase A-R1A (PKA-R1A) complex. [Related pubchem assays (depositor defined):AID504704, AID504707, AID504799, AID504800].
Assay [2] is described as follows: Fluorescence polarization-based biochemical high throughput dose response assay for activators of the Protein Kinase A-R2B (PKA-R2B) complex. [Related pubchem assays (depositor defined):AID504700, AID504704, AID504796, AID504797]. Background: Polarisation of emitted light reports the rotation of a fluorescent probe.
Assay [3] has as its target T1, Dual specificity protein phosphatase 3 (Homo sapiens, UniProt P51452). Put plainly: VHR1 phosphatase inhibitors, primary screen, biochemical, absorbance, uHTS (AID 1654).
Assay [4] concerns the target T1, Dual specificity protein phosphatase 3. Put plainly: VHR1 phosphatase inhibitors, biochemical (AID 1878).
Assay [5] concerns the target T2, Dual specificity protein phosphatase 6 (Rattus norvegicus, UniProt Q64346).
T2 sequence (Q64346 whole entry): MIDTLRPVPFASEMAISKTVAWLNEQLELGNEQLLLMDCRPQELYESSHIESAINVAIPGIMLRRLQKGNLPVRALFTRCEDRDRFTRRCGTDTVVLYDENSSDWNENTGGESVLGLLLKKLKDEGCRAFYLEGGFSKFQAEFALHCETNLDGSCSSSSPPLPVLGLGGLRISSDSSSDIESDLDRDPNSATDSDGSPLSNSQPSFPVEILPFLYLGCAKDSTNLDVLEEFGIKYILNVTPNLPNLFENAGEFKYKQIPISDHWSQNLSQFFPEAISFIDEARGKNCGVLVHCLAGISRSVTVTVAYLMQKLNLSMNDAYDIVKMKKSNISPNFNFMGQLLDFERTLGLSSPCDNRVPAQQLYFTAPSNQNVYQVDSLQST
Put plainly: inhibition of rat DUSP6 enzyme activity – biochemical, in vitro, primary screen (AID 425).

Assay [6] deals with Glucose-6-phosphate 1-dehydrogenase (Homo sapiens, UniProt P11413). Put plainly: inhibition of Homo sapiens G6PD, dose series – biochemical, fluorescence, selectivity assay for P. falciparum G6PD inhibitor project, dose response (AID 504792). Type of assay: functional.
Glucose-6-phosphate 1-dehydrogenase, sequence (P11413 whole entry): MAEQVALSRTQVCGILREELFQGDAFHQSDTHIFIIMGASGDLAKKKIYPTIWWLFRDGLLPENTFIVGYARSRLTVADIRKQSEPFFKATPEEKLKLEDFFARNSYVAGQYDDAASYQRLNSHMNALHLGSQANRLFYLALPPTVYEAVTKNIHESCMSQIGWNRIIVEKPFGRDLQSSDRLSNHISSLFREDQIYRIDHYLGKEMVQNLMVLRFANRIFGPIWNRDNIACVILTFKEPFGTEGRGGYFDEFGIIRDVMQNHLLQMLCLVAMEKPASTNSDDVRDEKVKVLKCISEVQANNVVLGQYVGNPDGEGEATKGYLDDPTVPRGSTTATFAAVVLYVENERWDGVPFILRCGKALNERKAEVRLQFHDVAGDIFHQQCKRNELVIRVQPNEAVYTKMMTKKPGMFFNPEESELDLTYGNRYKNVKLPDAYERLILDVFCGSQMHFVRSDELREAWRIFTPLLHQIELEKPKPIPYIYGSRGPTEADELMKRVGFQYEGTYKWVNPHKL
Assay [7] deals with T1, Dual specificity protein phosphatase 3. Put plainly: SAR VHR1 absorbance Assay for In Vitro dose response studies. [Related pubchem assays (depositor defined):AID1654, AID1661, AID1878, AID1992, AID2004].
For assay [8] the target is unchanged. Put plainly: SAR VHR1 Fluorescent Assay for In Vitro dose response studies. [Related pubchem assays (depositor defined):AID1654, AID1661, AID1878, AID1992, AID2004, AID2070, AID2085]. Type of assay: functional.
Assay [9] addresses T3, Tyrosine-protein phosphatase non-receptor type 7 (Homo sapiens, UniProt P35236).
T3 sequence (P35236 whole entry): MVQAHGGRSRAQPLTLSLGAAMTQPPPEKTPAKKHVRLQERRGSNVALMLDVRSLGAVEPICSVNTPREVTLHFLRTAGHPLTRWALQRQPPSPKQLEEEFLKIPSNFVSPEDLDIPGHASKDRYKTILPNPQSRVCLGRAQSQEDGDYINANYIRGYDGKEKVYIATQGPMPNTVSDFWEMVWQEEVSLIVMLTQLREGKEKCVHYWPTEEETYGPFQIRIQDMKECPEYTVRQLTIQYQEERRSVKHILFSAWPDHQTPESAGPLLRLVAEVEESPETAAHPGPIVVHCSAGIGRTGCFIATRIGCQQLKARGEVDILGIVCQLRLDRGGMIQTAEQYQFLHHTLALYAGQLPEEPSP
Put plainly: redox-active compounds inhibiting HePTP phosphatase – biochemical, fluorescence, mechanism study (AID 2068). Type of assay: functional.

Assay [10] addresses T2, Dual specificity protein phosphatase 6. Put plainly: SAR analysis of inhibitors of MKP-3 - Set 2. [Related pubchem assays (depositor defined):AID1055, AID1661, AID425, AID553, AID566]. Type of assay: functional.
Assay [11] has as its target T3, Tyrosine-protein phosphatase non-receptor type 7. Put plainly: SAR analysis of chemical inhibitors of HePTP using a Fluorescent assay - Set 2. [Related pubchem assays (depositor defined):AID1059, AID1077, AID1661, AID2085, AID521]. Type of assay: functional.
The target in assay [12] is T1, Dual specificity protein phosphatase 3. Put plainly: SAR VHR1 Fluorescent Assay for In Vitro dose response studies Set 2. [Related pubchem assays (depositor defined):AID1654, AID1661, AID1878]. Type of assay: functional.
Assay [13] has as its target T2, Dual specificity protein phosphatase 6. Type of assay: functional.
Assay [14] has as its target T4, Tyrosine-protein phosphatase non-receptor type 11 (Homo sapiens, UniProt Q06124).
T4 sequence (Q06124 whole entry): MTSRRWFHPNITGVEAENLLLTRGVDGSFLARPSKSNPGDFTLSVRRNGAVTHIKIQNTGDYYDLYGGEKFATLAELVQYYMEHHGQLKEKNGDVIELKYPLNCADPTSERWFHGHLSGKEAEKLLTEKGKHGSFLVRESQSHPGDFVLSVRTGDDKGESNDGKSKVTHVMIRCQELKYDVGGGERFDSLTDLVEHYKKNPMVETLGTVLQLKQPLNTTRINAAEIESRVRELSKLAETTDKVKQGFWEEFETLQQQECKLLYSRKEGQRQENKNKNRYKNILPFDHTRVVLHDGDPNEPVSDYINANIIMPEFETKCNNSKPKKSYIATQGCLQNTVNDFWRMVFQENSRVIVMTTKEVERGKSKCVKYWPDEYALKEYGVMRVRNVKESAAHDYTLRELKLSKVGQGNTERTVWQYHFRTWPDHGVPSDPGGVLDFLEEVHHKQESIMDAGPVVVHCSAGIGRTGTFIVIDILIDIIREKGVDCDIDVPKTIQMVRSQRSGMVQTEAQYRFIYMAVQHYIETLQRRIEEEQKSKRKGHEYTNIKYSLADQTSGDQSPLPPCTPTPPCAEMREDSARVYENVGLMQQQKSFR
Put plainly: PTPN11 enzyme inhibitors – biochemical, selectivity assay for STEP inhibitor project, dose response (AID 602367). Type of assay: functional. The conditions noted are these: read-out: IC50_Mean.

For assay [15], the target named is T5, Tyrosine-protein phosphatase non-receptor type 5 (Homo sapiens, UniProt P54829).
T5 sequence (P54829 whole entry): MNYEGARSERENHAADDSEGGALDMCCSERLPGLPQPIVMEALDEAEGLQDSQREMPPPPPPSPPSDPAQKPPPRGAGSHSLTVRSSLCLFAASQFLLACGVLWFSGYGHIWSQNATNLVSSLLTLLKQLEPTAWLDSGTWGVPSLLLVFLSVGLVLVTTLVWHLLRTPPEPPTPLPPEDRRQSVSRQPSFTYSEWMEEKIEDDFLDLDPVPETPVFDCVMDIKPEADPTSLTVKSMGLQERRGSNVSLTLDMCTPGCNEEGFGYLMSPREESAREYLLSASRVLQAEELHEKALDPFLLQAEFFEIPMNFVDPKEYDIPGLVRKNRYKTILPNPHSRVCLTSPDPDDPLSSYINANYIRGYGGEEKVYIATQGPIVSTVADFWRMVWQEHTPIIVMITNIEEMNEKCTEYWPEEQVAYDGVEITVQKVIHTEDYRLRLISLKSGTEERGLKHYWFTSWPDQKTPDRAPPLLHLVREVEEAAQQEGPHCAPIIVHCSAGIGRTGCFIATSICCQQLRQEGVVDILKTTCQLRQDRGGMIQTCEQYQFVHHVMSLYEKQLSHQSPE
Put plainly: PTPN5 enzyme inhibition – biochemical, fluorescence intensity, uHTS hits, confirmation (AID 602372). Type of assay: functional. The conditions noted are these: read-out: IC50_Mean.

Assay [16] has as its target T1, Dual specificity protein phosphatase 3. Put plainly: VHR phosphatase inhibition, dose response, selectivity assay for STEP inhibitor project, biochemical (AID 602374). The conditions noted are these: read-out: IC50_Mean. Type of assay: functional.
The target of assay [17] is T6, Tyrosine-protein phosphatase non-receptor type 22 (Homo sapiens, UniProt Q9Y2R2).
T6 sequence (Q9Y2R2 whole entry): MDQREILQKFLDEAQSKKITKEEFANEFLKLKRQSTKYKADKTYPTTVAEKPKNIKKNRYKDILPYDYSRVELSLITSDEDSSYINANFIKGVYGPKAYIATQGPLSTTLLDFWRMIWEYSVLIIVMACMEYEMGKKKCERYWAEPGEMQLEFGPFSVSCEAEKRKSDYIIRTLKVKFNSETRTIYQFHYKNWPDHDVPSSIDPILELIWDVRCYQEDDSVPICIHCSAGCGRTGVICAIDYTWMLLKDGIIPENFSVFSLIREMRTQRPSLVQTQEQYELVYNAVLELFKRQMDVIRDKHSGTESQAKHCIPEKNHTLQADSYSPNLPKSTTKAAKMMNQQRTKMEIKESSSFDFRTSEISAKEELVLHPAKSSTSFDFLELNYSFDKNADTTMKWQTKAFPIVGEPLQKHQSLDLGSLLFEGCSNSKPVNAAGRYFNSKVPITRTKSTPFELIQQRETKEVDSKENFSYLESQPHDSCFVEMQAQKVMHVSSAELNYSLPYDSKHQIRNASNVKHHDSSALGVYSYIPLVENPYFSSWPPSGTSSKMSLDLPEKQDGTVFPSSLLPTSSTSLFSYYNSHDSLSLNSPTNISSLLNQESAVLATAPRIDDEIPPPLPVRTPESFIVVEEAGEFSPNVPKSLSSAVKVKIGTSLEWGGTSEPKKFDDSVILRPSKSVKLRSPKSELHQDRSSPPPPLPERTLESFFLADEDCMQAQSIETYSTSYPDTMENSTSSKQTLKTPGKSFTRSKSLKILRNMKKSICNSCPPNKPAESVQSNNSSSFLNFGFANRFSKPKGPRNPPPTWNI
Put plainly: lymphoid phosphatase LYP inhibitors – biochemical, selectivity assay for STEP inhibitor project, dose response (AID 624241). Type of assay: functional.

Assay [18] is described as follows: Luminescence Cell-Based Dose Retest to Confirm Inhibitors of Cancer Stem Cells. [Related pubchem assays (depositor defined):AID2717, AID2721]. Type of assay: functional. The conditions noted are these: Homo sapiens.
The nature of assay [19]: viability loss of HMLE_sh_eGFP cells – cell-based, luminescence, counter-screen for HMLE_sh_ECad selective toxicity project, dose response (AID 463074).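 Further: HMLE human mammary epithelial cells expressing control shRNA against eGFP.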 Type of assay: functional, Homo sapiens.
Assay [20] has as its system Escherichia coli. Put plainly: microbe, parasite or virus in culture.
Assay [21] has as its system Escherichia coli. Put plainly: microbe, parasite or virus in culture. The source holds these as a separate data set.
Assay [22] concerns the target T1, Dual specificity protein phosphatase 3. Put plainly: SAR VHR1 Fluorescent Assay for In Vitro dose response studies Set 3. [Related pubchem assays (depositor defined):AID1654, AID1661, AID1878]. Type of assay: functional.

A word on the EC50: it is the concentration needed to bring the measured effect to its halfway point. The term AC50 denotes the concentration giving half of the maximal activity seen.

The source made the active and inactive calls.

T1 sequence (P51452 whole entry): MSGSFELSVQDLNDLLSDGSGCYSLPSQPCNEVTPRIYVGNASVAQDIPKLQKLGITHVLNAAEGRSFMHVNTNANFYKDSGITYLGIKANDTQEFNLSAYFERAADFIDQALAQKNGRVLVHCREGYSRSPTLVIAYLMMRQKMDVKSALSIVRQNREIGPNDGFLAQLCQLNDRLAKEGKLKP

On to `Nc1ncnc2c1nc(Br)n2[C@@H]1O[C@@H]2COP(=O)(O)O[C@H]2[C@H]1O`, for which the 50% effective concentration (EC50) in assay [1] is 0.0344 µM (active); in [2] it was 0.0511 µM (active).
Take `COc1ccc(NC(=S)N(CCC(C)C)C2CCN(C(C)C)CC2)cc1Cl`: the IC50 in [3] is 2.09 µM (active); in assay [4] it was 4.01 µM (active); in assay [5], > 158 µM (not active); in [6], > 80 µM (inactive); in assay [7] it was 1.26 µM (active); in [8] it was > 99 µM (inactive). Moreover, the IC50 in assay [9] is < 0.195 µM (active); in assay [10], > 100 µM (inactive); in [11] it was 0.662 µM (active); in [12] it was 0.216 µM (active); in assay [13], > 99 µM (inactive); in assay [14], 0.676 µM (active). The values for the IC50 in assay [15], in assay [16] and in [17] were 3.86 µM (active), 0.271 µM (active) and 21 µM (inactive), respectively.
With `COc1ccccc1N=C(S)N=Nc1c(O)[nH]c2ccc(Br)cc12`, the concentration at half-maximal activity (AC50) is 0.739 µM (active) in assay [18] and 31.4 µM (active) in assay [19].
Consider `Cc1ccccc1C(=O)N1CCC(C(=O)NC(C)c2ccc(-n3ccnc3)cc2)CC1` (configuration not stated), for which the half-maximal activity concentration (AC50) in assay [20] is 24.5 µM (active); in [21] it was 69.2 µM (active).
With `O=C(Nc1ccc(-c2nc3ccccc3s2)cc1)c1cc(-n2cnnc2)ccc1Cl`, the IC50 in [22] was 12.1 µM (active).

The record behind these values is ChEMBL document CHEMBL1201862, “PubChem BioAssay data set” (2004).
